These results are taken from EP1161410B1, “RETINOID ANTAGONISTS AND USE THEREOF” (Basilea Pharmaceutica AG, priority 1999, dated 2000).

In one data set the test system is neonatal mouse calvaria. Kind of data set: Bone resorption assay, calcium release from neonatal mouse calvaria in tissue culture. In kind it is cell-based, Swiss albino mice. How it is done:
A series of agents are known to induce or stimulate bone resorption. In this assay retinoid antagonists were tested for their capacity to inhibit or counteract the bone resorptive activity of bone resorption inducers.
Bone resorption was determined by quantification of calcium release from neonatal mouse calvaria (skull bones) in a tissue culture system, into supernatant medium. Calvaria were prepared from 4 days old mice (body weight 4-4.5 g) of time controlled mated Swiss albino mice. Frontal and parietal calvarial parts were dissected under a stereo-microscope and halved along the median suture. Half calvaria from all animals were randomly distributed to 6-well culture dishes (NUNC), containing stainless steel grids to support the bones at the interface of gas and medium. The tissue is incubated in BGJ medium (Bioconcept, Switzerland) according to a specified formulation supplemented with 1 mg/ml BSA (bovine serum albumin, SIGMA). Calvaria were cultured at 37°C in humidified atmosphere of 5% CO2 and 95% air. After 24 hours of preincubation, they were transferred to new dishes containing 1.7 ml fresh medium and test substances. Bone resorption inducers and retinoid antagonists were tested either as single agents or in combination. The cultures were then run for 72 hours. Calcium concentrations in culture supernatants were measured immediately after each incubation period. Stable, free calcium was determined in 25 µl samples with a spectrophotometric method using a methylthymol blue containing kit (Biomérieux), (E.M. Gindler and J.D. King, Am. J. Clin. Pathol. 1972, 58, 376-382). The resorptive response was expressed as µg calcium released per half calvarium during 3 days treatment.
Additional tests were done to examine calcium remaining in the calvaria. Calcium was extracted with 5% trichloroacetic acid (TCA) and determined in 50 µl samples after neutralization with NaOH. Furthermore, bone tissue viability was determined to exclude cytotoxicity. This was quantified by the colorimetric MTT tetrazolium test (T. Mosmann, J. Immunol. Methods 1983, 65, 55-63).
Bone resorption induced by the various agents was determined by measuring the amount of calcium released from half calvaria into the supernatant medium. Calcium release is indicated in µg per half calvarium in 1.7 ml medium. Calcium release from calvaria into medium as well as uptake of calcium from medium into calvaria can be measured. Efficacy of retinoid antagonists to inhibit the activity of bone resorption inducers is expressed as % inhibition. It is calculated from the difference between the amount of released calcium by bone resorption inducers alone and the amount of released calcium by their combination with retinoid antagonists. Retinoid antagonists alone induce neither calcium release nor uptake. Basal resorption rate in vehicle controls was 5 or less than 5%.

Data set [1] in a line: Effect on weight loss induced by all-trans retinoic acid in mice. Conditions: female mice.
Excerpt: Effect of retinoids with RXR antagonistic activity on weight loss induced by all-trans retinoic acid in mice.
The test compounds were solubilized/suspended in arachis oil and applied intraperitoneally into female mice (25/30 g) for 5 days a week during 2 weeks.
The next data set deals with IL-10. Nature of the data set: IL-10 production by activated monocytes (SAC + IFN-γ). In kind it is cell-based, human. Conditions: SAC+IFN-γ alone 1040 pg/ml.
Data set [2] concerns IL-12. Nature of the data set: IL-12 production by PBMC primed with IFNγ and stimulated with SAC. In kind it is cell-based, human. Conditions: IFNγ+SAC alone 360. How it is done:
(§1) THP-1 cells were obtained from American Tissue Culture Collection and cultured in complete medium. To assay for IL-12 production, THP-1 cells, 1.25 x 10^6 cells/ml, were stimulated with S. aureus Cowan strain (SAC) (1/1000) and human recombinant interferon-γ (huIFN-γ (1000 U/ml) [Ma et al., J. Exp. Med. 183, 147-157 (1996)]. Alternatively, 0.5 x 10^6 human peripheral blood mononuclear cells (PBMC) (1 ml culture in 48 well plates) were primed with huIFN-γ (1000 U/ml) for 16 hours at 37°C, and then stimulated with SAC (1/1000). Supernatants were collected after 48 hours and freezed at -20 °C until assayed [Panina-Bordignon et al., J. Clin. Invest. 100, 1513-1519 (1997)].
(§2) IL-12 production was measured by specific enzyme linked immuno sorbant assay (ELISA), using 20C2 antibody (rat anti human IL-12 heterodimer p40-p35), at 2.5 µg/ml in coating buffer, and peroxidase-conjugated 4D6 antibody (rat anti human IL-12) at 250 ng/ml in assay buffer as described [Zhang et al., J. Clin. Invest. 93, 1733-1739 (1994)]. Standard (recombinant human IL-12, 800 pg/ml to 6 pg/ml) and samples (100 µl) diluted in assay buffer were added to duplicate wells. Absorbance was read at 450-650 nm. The unknown IL-12 concentrations of the samples were read from the corresponding standard curve and multiplied by the corresponding dilution factor. Maximal IL-12 production varied between 200 and 400 pg/ml.
(§3) Lyophilized retinoid antagonists were diluted in DMSO under yellow light, on ice at a concentration of 2 mM. Serial dilutions (1 µM-1 pM) were prepared in complete RPMI medium. 10 µl of each dilution was added to 1 ml culture.

For data set [3], the system named is IL-12. Kind of data set: IL-12 production by activated monocytes (SAC + IFN-γ), ELISA. Conditions: SAC+IFN-γ alone 120-126 pg/ml. In kind it is cell-based, human. How it is done: THP-1 cells were obtained from American Tissue Culture Collection and cultured in complete medium. […] Exp. Med. 183, 147-157 (1996)]. […] Supernatants were collected after 48 hours and freezed at -20 °C until assayed [[…]-Bordignon et al., J. Clin. Invest. 100, 1513-1519 (1997)]. […] Clin. Invest. 93, 1733-1739 (1994)]. […] Absorbance was read at 450-650 nm. The unknown IL-12 concentrations of the samples were read from the corresponding standard curve and multiplied by the corresponding dilution factor. […] Serial dilutions (1 μM-1 pM) were prepared in complete RPMI medium. 10 μl of each dilution was added to 1 ml culture.
Background: An ELISA detects its analyte on a solid surface through an enzyme-linked reagent.

In data set [4] the test system is IL-12. Nature of the data set: IL-12 production by THP-1 cells stimulated with IFNγ and SAC. In kind it is cell-based, human. The note with it: retinoid antagonist (1 µg) added at time 0 together with IFNγ, IFNγ+SAC alone 275. How it is done: as §1, §2, §3
For another data set, the system named is TNF-α. Nature of the data set: TNF-α production by activated monocytes (SAC + IFN-γ). In kind it is cell-based, human. Conditions: SAC+IFN-γ alone 1840-2000 pg/ml.
The mark [5] stands for this setting: A 200 mg/kg alone, intraperitoneally, n=2.
Setting [6] is: C 100 mg/kg + A 200 mg/kg, intraperitoneally, n=2.
Where [7] appears, read: C 200 mg/kg + A 200 mg/kg, intraperitoneally, n=2.

On to `C=C1/C(=C\C=C2/CCC[C@]3(C)[C@@H]([C@H](C)CCCC(C)(C)O)CC[C@@H]23)C[C@@H](O)C[C@@H]1O` [Calcitriol, 1,25-dihydroxyvitamin D3], for which the “Calcium release per half calvarium” value in the data set on neonatal mouse calvaria (Calcitriol 0.3 nM alone, 72 hours) turned out to be 4 ± 3 µg; with neonatal mouse calvaria (Calcitriol 1 nM alone, 72 hours), 9 ± 4 µg; with neonatal mouse calvaria (Calcitriol 3 nM alone, 72 hours) it was 13 ± 3 µg.
On to `CCOc1c(\C(C)=C/C=C/C(C)=C/C(=O)O)cc(C(C)(C)C)cc1C(C)(C)C` [Compound A, (2E,4E,6Z)-7-(3,5-di-tert.butyl-2-ethaxyphenyl]-3-methyl-2,4,6-octatrienoic acid], for which, in data set [1] (setting [5]), the “% survival after 14 days” value worked out at 100%, the “% weight change after 4 days” value is reported as “+15%” and the “% weight change after 7 days” value is “+26%”. In addition, in data set [1] (setting [6]), the “% survival after 14 days” value came to 100%, the “% weight change after 4 days” value is -13% and the “% weight change after 7 days” value is -8%. For the same molecule, in data set [1] (setting [7]), the “% survival after 14 days” value worked out at 100%, the “% weight change after 4 days” value is on record as -23% and the “% weight change after 7 days” value is recorded as -23%.
Turning to `CC1=C(/C=C/C(C)=C/C=C/C(C)=C/C(=O)O)C(C)(C)CCC1` [Compound C, all-trans retinoic acid], the “Calcium release per half calvarium” value in the data set with neonatal mouse calvaria (all-trans RA 0.01 μM alone, series of antagonist B) was determined as 1 ± 2 µg; in the data set with neonatal mouse calvaria (all-trans RA 0.01 μM alone, series of antagonist H), 1 ± 4 µg; in the data set with neonatal mouse calvaria (all-trans RA 0.1 μM alone, series of antagonist B), 13 ± 3 µg; in the data set on neonatal mouse calvaria (all-trans RA 0.1 μM alone, series of antagonist H) it was 19 ± 11 µg; with neonatal mouse calvaria (all-trans RA 1 μM alone, series of antagonist B), 17 ± 3 µg; in the data set with neonatal mouse calvaria (all-trans RA 1 μM alone, series of antagonist H) it was 23 ± 8 µg. The “% survival after 14 days” value in data set [1] (C 100 mg/kg alone, intraperitoneally, n=10) amounted to 20%; in data set [1] (C 200 mg/kg alone, intraperitoneally 5 days a week during 2 weeks, n=2) it was 0%.
Consider `CC1=C(/C=C/C(C)=C\C=C\C(C)=C\C(=O)O)C(C)(C)CCC1` [Compound E, 9-cis retinoic acid], for which the “Calcium release per half calvarium” value came out at 3 ± 3 µg in the data set with neonatal mouse calvaria (9-cis RA 0.01 μM alone, series of antagonist B); 6 ± 10 µg in the data set on neonatal mouse calvaria (9-cis RA 0.01 μM alone, series of antagonist H); 17 ± 10 µg in the data set on neonatal mouse calvaria (9-cis RA 0.1 μM alone, series of antagonist B); 22 ± 8 µg with neonatal mouse calvaria (9-cis RA 0.1 μM alone, series of antagonist H); 18 ± 4 µg with neonatal mouse calvaria (9-cis RA 1 μM alone, series of antagonist B); 40 ± 11 µg in the data set on neonatal mouse calvaria (9-cis RA 1 μM alone, series of antagonist H).
With `CC1(C)CCC(C)(C)c2cc3c(cc21)CCc1c(-c2ccc(C(=O)O)cc2)cn(Cc2cccnc2)c1-3` [Compound I, 4-(7,7,10,10-Tetramethyl-1-pyridin-3-ylmethyl-4,5,7,8,9,10-hexahydro-1H-naphto[2,3-g]indol-3-yl)-benzoic acid], the IL-10 with IL-10 (antagonist 10 nM) stood at 971 pg/mL; with IL-10 (antagonist 100 nM), 983 pg/mL; in the data set with IL-10 (antagonist 1000 nM) it was 1116 pg/mL. Further, the “PBMC IL-12” value is 367 pg/mL in the data set on IL-12 [2] (retinoid antagonist (1 µg) added after 16 hours together with SAC) and 371 pg/mL with IL-12 [2] (retinoid antagonist (1 µg) added at time 0 together with IFNγ). The IL-12 in the data set on IL-12 [3] (antagonist 10 nM) was 173 pg/mL; in the data set with IL-12 [3] (antagonist 100 nM), 205 pg/mL; in the data set with IL-12 [3] (antagonist 1000 nM) it was 321 pg/mL. Moreover, the “THP-1 IL-12” value in the data set with IL-12 [4] came out at 364 pg/mL. The TNF-α is 2592 pg/mL in the data set with TNF-α (antagonist 10 nM), 2752 pg/mL in the data set with TNF-α (antagonist 100 nM) and 2884 pg/mL with TNF-α (antagonist 1000 nM).
